Test results taken from patent US6902913B2, “Recombinant narbonolide polyketide synthase” (priority 1997, dated 2005).

Experiments:
[1] = target: T1, 6-hydroxylase encoded by eryF (Saccharopolyspora erythraea, UniProt Q00441); experiment: in vitro 6-hydroxylation by the 6-hydroxylase encoded by eryF; type: biochemical; conditions: 100 pmol hydroxylase, 10 nmol substrate, 90 minutes at 30° C., based on relative total ion counts
T1 construct: made in house; host or cells: E. coli
T1 sequence (Q00441 1-404): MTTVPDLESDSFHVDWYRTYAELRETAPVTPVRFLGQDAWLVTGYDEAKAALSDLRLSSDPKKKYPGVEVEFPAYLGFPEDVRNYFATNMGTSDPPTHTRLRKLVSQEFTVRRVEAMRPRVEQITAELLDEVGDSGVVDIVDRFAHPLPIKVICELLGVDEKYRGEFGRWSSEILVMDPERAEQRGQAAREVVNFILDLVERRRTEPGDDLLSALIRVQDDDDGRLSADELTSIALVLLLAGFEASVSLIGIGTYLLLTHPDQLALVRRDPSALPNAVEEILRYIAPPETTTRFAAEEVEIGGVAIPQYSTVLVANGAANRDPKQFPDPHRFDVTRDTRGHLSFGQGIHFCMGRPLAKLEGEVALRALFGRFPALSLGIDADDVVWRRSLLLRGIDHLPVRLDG
Description: The 6-hydroxylase encoded by eryF was expressed in E. coli, and partially purified. The hydroxylase (100 pmol in 10 μL) was added to a reaction mixture (100 μl total volume) containing 50 mM Tris/HCl (pH 7.5), 20 μM spinach ferredoxin, 0.025 Unit of spinach ferredoxin:NADP^+ oxidoreductase, 0.8 Unit of glucose-6-phosphate dehydrogenase, 1.4 mM NADP^+, 7.6 mM glucose-6-phosphate, and 10 nmol 6-deoxyerythronolide B. The reaction was allowed to proceed for 90 minutes at 30° C. Half of the reaction mixture was loaded onto an HPLC, and the effluent was analyzed by mass spectrometry. The production of erythronolide B as evidenced by a new peak eluting earlier in the gradient and showing [M+H]^+=401. Conversion was estimated at 50% based on relative total ion counts.

picK protein = target: T2, picK protein (Streptomyces venezuelae, UniProt O87605, G416S); experiment: hydroxylase activity of the picK protein (conversion of narbomycin to picromycin); type: biochemical; conditions: crude supernatant of E. coli BL21-DE3/pKOS023-61, 20 nmol narbomycin, 105 minutes at 30° C., by ELSD peak area
T2 construct: made in house; host or cells: E. coli BL21-DE3
Description: Plasmid pKOS023-61 was transformed into E. coli BL21-DE3. Successful transformants were grown in LB-containing carbenicillin (100 μg/ml) at 37° C. to an OD600 of 0.6. Isopropyl-beta-D-thiogalactopyranoside (IPTG) was added to a final concentration of 1 mM, and the cells were grown for an additional 3 hours before harvesting. The cells were collected by centrifugation and frozen at −80° C. A control culture of BL21-DE3 containing the vector plasmid pET21c (Invitrogen) was prepared in parallel.
The frozen BL21-DE3/pKOS023-61 cells were thawed, suspended in […] of cold cell disruption buffer (5 mM imidazole, 500 mM NaCl, 20 mM Tris/HCl, pH 8.0) and sonicated to facilitate lysis. Cellular debris and supernatant were separated by centrifugation and subjected to SDS-PAGE on 10-15% gradient gels, with Coomassie Blue staining, using a Pharmacia Phast Gel Electrophoresis system. The soluble crude extract from BL21-DE3/pKOS023-61 contained a Coomassie stained band of Mr˜46 kDa, which was absent in the control strain BL21-DE3/pET21c.
The hydroxylase activity of the picK protein was assayed as follows. […] Half of the reaction mixture was loaded onto an HPLC, and the effluent was analyzed by evaporative light scattering (ELSD) and mass spectrometry. […]

Row | SMILES | conversion of 6-deoxyerythronolide B to erythronolide B [1] | conversion of narbomycin to picromycin (picK protein)
1 | CC[C@H]1OC(=O)[C@H](C)[C@@H](O)[C@H](C)[C@@H](O)[C@@H](C)C[C@@H](C)C(=O)[C@H](C)[C@@H](O)[C@H]1C [6-deoxyerythronolide B] | ~50% | 
2 | CC[C@H]1OC(=O)[C@H](C)C(=O)[C@H](C)[C@@H](O[C@@H]2O[C@H](C)C[C@H](N(C)C)[C@H]2O)[C@@H](C)C[C@@H](C)C(=O)/C=C/[C@H]1C [narbomycin] |  | greater than 90%
